Data set [1] deals with brown adipose tissue precursor cells (UCP1). Briefly: BAT differentiation: UCP1 protein by Western blot in BAT precursor cells. The format is cell-based, mice. Particulars: 7 days. Here is the method:
Precursors of BAT are isolated from the interscapular adipose pad of either normal or diabetic mice and cultured in vitro as described below based on the modifications recited in Petrovic N, Shabalina I G, Timmons J A, Cannon B, Nedergaard J. Am. J. Physiol. Endocrinol. Metab. 295:E287-E296, 2008, hereby incorporated by reference.
The brown fat pads are pooled and minced, digested for 45 minutes in isolation buffer containing 0.15% (wt/vol) collagenase. The cell suspension is filtered through a 100 un nylon filter and centrifuged at 200×g for 5 minutes. The pellet containing the preadipocytes is resuspended in 1.2 ml/animal of DMEM containing 10% FBS, 10 mM HEPES, 25 μg/ml sodium ascorbate, 100 U/ml penicillin, and 100 μg/ml streptomycin. The resuspended preadipocytes are distributed into 6 well plates and grown at 37° C. in an atmosphere of 10% CO2 in air with 80% humidity. The medium is changed on the first day and then every second day until confluent.
Cells are then treated with the compounds, compound salts, or co-crystals thereof being assayed for BAT differentiation. This treatment can occur simultaneously with, after, or before strategies to increase intracellular cyclic nucleotides. The development of the BAT phenotype is assessed by direct measure of the uncoupling protein 1 (UCP1), which is emblematic of brown adipose cells.
Following treatment of the cells, the growth medium is aspirated, rinsed with PBS, and lysed with KHM buffer containing 1% Igepal CA-630, and a protease inhibitor cocktail. The lysate is centrifuged at 8,000×g for 5 minutes (4° C.), the supernatant containing the cell lysate is collected and total protein analyzed using the BCA method. 20 μg/lane of cell lysate is run on 10-20% Tris glycine gels under reducing conditions and the proteins transferred to PVDF membranes. Western blotting is conducted using UCP1 polyclonal 1° antibody, an HRP conjugated 2° antibody, and imaged using enhanced chemiluminescence reagents and imaging film. Densitometry is conducted on the scanned films using ImageJ software and analyzed using GraphPad Prism software.

The nature of data set [2]: Bioavailability of sodium salt of Compound A, oral capsule versus iv injection. The format is in vivo. Particulars: male cynomolgus monkeys, oral gavage, 90 mg free base equivalents in capsules, absolute availability versus iv. The procedure:
The monkeys fasted overnight and were dosed by oral gavage washed down with 10 ml tap water. Blood samples were taken at 0.25, 0.5, 1, 2, 3, 4, 6, 9, 12, 24, and 48 hours after a single dosage was administered and assayed for drug related materials with a LCMS assay using an internal standard. 90 mg of drug was put in 00 gelatin capsules containing 90 mg of free base equivalents. This was compared to an iv injection of 2 ml/kg and 45 mg of free base solution in 50% hydroxypropyl b-cyclodextran. The absolute availability versus an iv injection was determined for both parent compound and major metabolite.

The next data set deals with diabetic KKAy mouse. Nature of the data set: Blood glucose lowering in the diabetic KKAy mouse. Type of data set: in vivo. Particulars: diabetic KKAy mice, gavage once daily, glucose measured after 4 daily doses. The procedure: In these experiments, free base or sodium salt was given to diabetic KKAy mice (N=6) and blood glucose was measured after 4 days of daily treatment at the doses indicated. KKAy mice, 8-12 weeks of age, were given the doses of the compounds according to the dosages on the X axis of FIG. 10. The compounds were given by gavage once daily at […]. On the fifth day (after 4 daily doses at the levels show) a blood sample was taken to measure plasma glucose.

Another data set concerns PGC-1α. Briefly: Expression of PGC-1α mRNA in precursor BAT cells with norepinephrine (quantitative PCR). Type of data set: cell-based, mice. The note with it: for PGC-1α message (mRNA): 3 μM compound for seven days, then 1 μM norepinephrine for 2 hours. The procedure:
Another example of the ability of augmented signaling between cyclic nucleotides and compounds of Formula I is shown by the effect on expression of PGC-1α, a known regulator of mitochondrial biogenesis. Increased numbers of mitochondria are predictive of utility for the reduction of body weight.
Precursor BAT cells were isolated as described above and treated with or without 3 μM compounds: 1.] Compound A: 5-(4-(2-(5-ethylpyridin-2-yl)-2-oxoethoxy)benzyl)-1,3-thiazolidine-2,4-dione; 2.] Compound F: 5-((4-(2R)-2-(5-ethylpyridin-2-yl)-2-hydroxyethoxyl)benzyl)-1,3-thiazolidine-2,4-dione; or 3.] Compound G: 5-(4-(2-(3-methoxyphenyl)-2-oxoethoxy)benzyl)-1,3-thiazolidine-2,4-dione for seven days followed by treatment with 1 μM norepinephrine for 2 hours. Total RNA was isolated from the cells and the RNA message (mRNA) for PGC-1α was measured by quantitative polymerase chain reactions.

Data set [3] in a line: AUC of compound related materials after oral dosing of Compound G forms. The format is in vivo. The note with it: cynomolgus monkeys, 250 mg free acid equivalents, formulated tablets. The procedure: Referring to FIG. 9, the area under the curve (AUC) of compound related materials was compared following dosing of 250 mg of Compound G as powder in capsules of free acid (PIC), formulated tablets of micronized free acid, or formulated tablets of the Na or K salt of […] given at the same free acid equivalents. (N=4 cynomolgus monkeys). The formulated, compressed tablet also contained in each case approximately 40.5% lactose, 16.8% microcrystalline cellulose, 1.9% Croscarmellose sodium, 0.5% colloidal silicon dioxide, and 0.9% magnesium stearate.

On to `COc1cccc([C@H](F)COc2ccc(CC3SC(=O)NC3=O)cc2)c1` (stereo partly drawn) [Compound B, 5-(4-((S)-2-fluoro-2-(3-methoxyphenyl)ethoxy)benzyl)thiazolidine-2,4-dione], for which the “amount of UCP1 (Western blot)” value in data set [1] (0.1 to 3 μM) is “dose-dependent increase”.

Take `CCc1ccc([C@@H](F)COc2ccc(CC3SC(=O)NC3=O)cc2)nc1` (stereo partly drawn) [Compound E, 5-(4-((R)-2-(5-ethylpyridin-2-yl)-2-fluoroethoxy)benzyl)thiazolidine-2,4-dione]: the “amount of UCP1 (Western blot)” value in data set [1] (3 to 10 μM) is “dose-dependent increase”. Consider `CCc1ccc(C(=O)COc2ccc(CC3SC(=O)[N-]C3=O)cc2)nc1.[Na+]` (centres unmarked) [sodium salt of Compound A, Sodium 5-{4-[2-(5-ethylpyridin-2-yl)-2-oxoethoxy]benztl}-2,4-dioxo-1,3-thiazolidin-3-ide], for which, in data set [2], the “bioavailability of major metabolite versus free base counterpart” value is “significantly higher bioavailability” and the “bioavailability of parent compound versus free base counterpart” value is given as “significantly higher bioavailability”. For the same compound, in the data set on diabetic KKAy mouse, the lowering blood glucose entry is “excellent dose response”.

As to `CCc1ccc(C(=O)COc2ccc(CC3SC(=O)NC3=O)cc2)nc1` (centres unmarked) [Compound A, 5-{4-[2-(5-ethylpyridin-2-yl)-2-oxoethoxy]benzyl}-1,3-thiazolidine-2,4-dione], the “amount of UCP1 (Western blot)” value in data set [1] (0.1 to 10 μM) is reported as “dose-dependent increase”. Moreover, the “PGC-1α message (mRNA)” value with PGC-1α is given as “an increase in PGC-1α message was observed”. Regarding `CCc1ccc([C@H](F)COc2ccc(CC3SC(=O)NC3=O)cc2)nc1` (stereo partly drawn) [Compound D, 5-(4-((S)-2-(5-ethylpyridin-2-yl)-2-fluoroethoxy)benzyl)thiazolidine-2,4-dione], the “amount of UCP1 (Western blot)” value in data set [1] (3 to 10 μM) is given as “dose-dependent increase”. Turning to `COc1cccc(C(=O)COc2ccc(CC3SC(=O)NC3=O)cc2)c1` (centres unmarked) [Compound G, 5-{4-[2-(3-methoxyphenyl)-2-oxoethoxy]benzyl}-1,3-thiazolidine-2,4-dione], in the data set on PGC-1α, the “PGC-1α message (mRNA)” value is listed as “an increase in PGC-1α message was observed”. On the same count and under the same terms, to `CCc1ccc([C@@H](O)COc2ccc(CC3SC(=O)NC3=O)cc2)nc1` (stereo partly drawn) [Compound F, 5-((4-(2R)-2-(5-ethylpyridin-2-yl)-2-hydroxyethoxyl)benzyl)-1,3-thiazolidine-2,4-dione] belongs “an increase in PGC-1α message was observed”.

With `COc1cccc(C(=O)COc2ccc(CC3SC(=O)[N-]C3=O)cc2)c1.[Na+]` (centres unmarked) [sodium salt of Compound G, Sodium 5-{4-[2-(3-methoxyphenyl)-2-oxoethoxy]benztl}-2,4-dioxo-1,3-thiazolidin-3-ide], the “bioavailability (AUC of compound related materials) versus free acid counterparts” value in data set [3] is “significantly higher bioavailability”. For `NC[C@H](O)c1ccc(O)c(O)c1` [norepinephrine, reference compound], the “PGC-1α mRNA” value in the data set on PGC-1α (norepinephrine alone, 1 μM for 2 hours, absence of compound (control)) is “did not produce an increase”. As for `COc1cccc([C@@H](F)COc2ccc(CC3SC(=O)NC3=O)cc2)c1` (stereo partly drawn) [Compound C, 5-(4-((R)-2-fluoro-2-(3-methoxyphenyl)ethoxy)benzyl)thiazolidine-2,4-dione], the “amount of UCP1 (Western blot)” value in data set [1] (0.1 to 3 μM) is reported as “dose-dependent increase”.

Take `COc1cccc(C(=O)COc2ccc(CC3SC(=O)[N-]C3=O)cc2)c1.[K+]` (centres unmarked) [potassium salt of Compound G, Potassium 5-{4-[2-(3-methoxyphenyl)-2-oxoethoxy]benzyl}-2,4-dioxo-1,3-thiazolidin-3-ide]: the “bioavailability (AUC of compound related materials) versus free acid counterparts” value in data set [3] was “significantly higher bioavailability”.

The values above are taken from patent publication US20120316138A1, “PPAR-SPARING THIAZOLIDINEDIONES AND COMBINATIONS FOR THE TREATMENT OF OBESITY AND OTHER METABOLIC DISEASES” (METABOLIC SOLUTIONS DEVELOPMENT COMPANY, LLC, priority 2009, published 2012).
